Laboratory results reported in patent US20220144853A1, “IMIDAZOLINE DERIVATIVES AS CXCR4 MODULATORS” (Université de Paris, priority 2019, published 2022).
Structures can show the parent of a compound that is named as a salt.

| melting point | SMILES |
| --- | --- |
| 227 to 232 °C | CC(C)C1CN2C(CSC3=NCC(C)(C)N3)=CSC2=N1 (centres unmarked) (as salt: hydrochloride) [Example 52, 3-(((5,5-dimethyl-4,5-dihydro-1H-imidazol-2-yl)thio)methyl)-6-isopropyl-5,6-dihydroimidazo[2,1-b]thiazole dihydrochloride] |
| 240 to 243 °C | CC1(C)CN2C(=N1)SCC2SC1=NCC(C)(C)N1 (centres unmarked) (as salt: hydrochloride) [Example 70, 3-((5,5-dimethyl-4,5-dihydro-1H-imidazol-2-yl)thio)-6,6-dimethyl-2,3,5,6-tetrahydroimidazo[2,1-b]thiazole dihydrochloride] |
| 125 to 130 °C | C1=C(CSC2=N[C@@H]3CCCC[C@H]3N2)N2CC(Cc3ccccc3)N=C2S1 (stereo partly drawn) (as salt: hydrochloride) [Example 61, 6-benzyl-3-((((3aR,7aR)-3a,4,5,6,7,7a-hexahydro-1H-benzo[d]imidazol-2-yl)thio)methyl)-5,6-dihydroimidazo[2,1-b]thiazole dihydrochloride] |
| 50 to 53 °C | C1=C(CSC2=NCC(Cc3ccccc3)N2)N2CCCN=C2S1 (centres unmarked) (as salt: hydrochloride) [Example 48, 3-(((5-benzyl-4,5-dihydro-1H-imidazol-2-yl)thio)methyl)-6,7-dihydro-5H-thiazolo[3,2-a]pyrimidine dihydrochloride] |
| 110 to 120 °C | CC1(C)CN2C(CSC3=NCC(c4ccccc4)N3)=CSC2=N1 (centres unmarked) (as salt: hydrochloride) [Example 53, 6,6-dimethyl-3-(((4-phenyl-4,5-dihydro-1H-imidazol-2-yl)thio)methyl)-5,6-dihydroimidazo[2,1-b]thiazole dihydrochloride] |
| 115 to 120 °C | C1=C(CSC2=NCCN2)N2C(=N[C@H]3CCCCC32)S1 (mixture of isomers) (as salt: hydrochloride) [Example 59, trans-3-(((4,5-dihydro-1H-imidazol-2-yl)thio)methyl)-4a,5,6,7,8,8a-hexahydrobenzo[4,5]imidazo[2,1-b]thiazole dihydrochloride] |
| 230 to 233 °C | C1=C(CSC2=N[C@@H]3CCCC[C@H]3N2)N2CCN=C2S1 (as salt: hydrochloride) [Example 44, 3-((((3aR,7aR)-3a,4,5,6,7,7a-hexahydro-1H-benzo[d]imidazol-2-yl)thio)methyl)-5,6-dihydroimidazo[2,1-b]thiazole dihydrochloride] |
| > 250 °C | C1=C(CSC2=N[C@@H]3CCCC[C@H]3N2)N2CCCCN=C2S1 (as salt: hydrochloride) [Example 46, 3-((((3aR,7aR)-3a,4,5,6,7,7a-hexahydro-1H-benzo[d]imidazol-2-yl)thio)methyl)-5,6,7,8-tetrahydrothiazolo[3,2-a][1,3]diazepine dihydrochloride] |
| 234 to 237 °C | CC(C)C1CN=C(SCC2=CSC3=NC(C)(C)CN23)N1 (centres unmarked) (as salt: hydrochloride) [Example 49, 3-(((5-isopropyl-4,5-dihydro-1H-imidazol-2-yl)thio)methyl)-6,6-dimethyl-5,6-dihydroimidazo[2,1-b]thiazole dihydrochloride] |
| 154 to 160 °C | CC(C)[C@@H]1N=C(SCC2=CSC3=NC(C)(C)CN23)N[C@H]1C(C)C (as salt: hydrochloride) [Example 58, 3-((((4S,5S)-4,5-diisopropyl-4,5-dihydro-1H-imidazol-2-yl)thio)methyl)-6,6-dimethyl-5,6-dihydroimidazo[2,1-b]thiazole dihydrochloride] |
| 169 to 180 °C (dec.) | CC1(C)CN2C(=N1)SC(I)=C2CSC1=NCC(C)(C)N1 (as salt: hydrochloride) [Example 66, 3-(((5,5-dimethyl-4,5-dihydro-1H-imidazol-2-yl)thio)methyl)-2-iodo-6,6-dimethyl-5,6-dihydroimidazo[2,1-b]thiazole dihydrochloride] |
| > 250 °C | C1=C(CSC2=N[C@@H]3CCCC[C@H]3N2)N2CCCN=C2S1 (as salt: hydrochloride) [Example 45, 3-((((3aR,7aR)-3a,4,5,6,7,7a-hexahydro-1H-benzo[d]imidazol-2-yl)thio)methyl)-6,7-dihydro-5H-thiazolo[3,2-a]pyrimidine dihydrochloride] |

Continued, compound first:

| SMILES | melting point |
| --- | --- |
| CC1(C)CN=C(SCCc2cccc3ncccc23)N1 (as salt: hydrochloride) [Example 41, 5-(2-((5,5-dimethyl-4,5-dihydro-1H-imidazol-2-yl)thio)ethyl)quinoline dihydrochloride] | 240 to 245 °C |
| CC1(C)CN2C(CSC3=N[C@@H]4CCCC[C@@H]4N3)=CSC2=N1 (as salt: hydrochloride) [Example 5, 3-((((3R,7aS)-3a,4,5,6,7,7a-hexahydro-1H-benzo[d]imidazol-2-yl)thio)methyl)-6,6-dimethyl-5,6-dihydroimidazo[2,1-b]thiazole dihydrochloride] | > 250 °C |
| C1=C(CSC2=N[C@H]3COC[C@H]3N2)N2C(=N[C@@H]3COC[C@@H]32)S1 (mixture of isomers) (as salt: hydrochloride) [Example 36, mixture of (4aS,7aR)-3-((((3aS,6aR)-3a,4,6,6a-tetrahydro-1H-furo[3,4-d]imidazol-2-yl)thio)methyl)-4a,5,7,7a-tetrahydrofuro[3′,4′:4,5]imidazo[2,1-b]thiazole dihydrochloride and (4aR,7aS)-3-((((3aR,6aS)-3a,4,6,6a-tetrahydro-1H-furo[3,4-d]imidazol-2-yl)thio)methyl)-4a,5,7,7a-tetrahydrofuro[3′,4′: 4,5]imidazo[2,1-b]thiazole dihydrochloride] | > 250 °C |
| CC1(C)CN=C(SCC2=CSC3=N[C@H]4CCCC(C4)N23)N1 (racemic) (as salt: hydrochloride) [Example 23, cis-3-(((5,5-dimethyl-4,5-dihydro-1H-imidazol-2-yl)thio)methyl)-6,7,8,9-tetrahydro-5H-5,9-methanothiazolo[3,2-a][1,3]diazocine dihydrochloride] | 240 to 245 °C |
| CC1(C)CN=C(SCC2=CSC3=NCCN23)N1 (as salt: hydrochloride) [Example 21, 3-(((5,5-dimethyl-4,5-dihydro-1H-imidazol-2-yl)thio)methyl)-5,6-dihydroimidazo[2,1-b]thiazole dihydrochloride] | 220 to 230 °C |
| CC1(C)CN=C(SCC2=CSC3=NC4CCCCC4CN23)N1 (centres unmarked) (as salt: hydrochloride) [Example 43, 3-(((5,5-dimethyl-4,5-dihydro-1H-imidazol-2-yl)thio)methyl)-5a,6,7,8,9,9a-hexahydro-5H-thiazolo[2,3-b]quinazoline dihydrochloride] | 241 to 245 °C |
| CC1(C)CN=C(SCC2=CSC3=NCCCN23)N1 (as salt: hydrochloride) [Example 14, 3-(((5,5-dimethyl-4,5-dihydro-1H-imidazol-2-yl)thio)methyl)-6,7-dihydro-5H-thiazolo[3,2-a]pyrimidine dihydrochloride] | 242 to 245 °C |
| CC1(C)CN=C(SCC2=CSC3=NC(Cc4ccccc4)CN23)N1 (centres unmarked) (as salt: hydrochloride) [Example 18, 6-benzyl-3-(((5,5-dimethyl-4,5-dihydro-1H-imidazol-2-yl)thio)methyl)-5,6-dihydroimidazo[2,1-b]thiazole dihydrochloride] | 63 to 74 °C |
| CC1(C)CN2C(CSC3=NCC(C)(C)N3)=CSC2=N1 (as salt: hydrochloride) [Example 2, 3-(((5,5-dimethyl-4,5-dihydro-1H-imidazol-2-yl)thio)methyl)-6,6-dimethyl-5,6-dihydroimidazo[2,1-b]thiazole dihydrochloride] | > 250 °C |
| C1=C(CSC2=NCCCN2)N2CCCCN=C2S1 (as salt: hydrochloride) [Example 37, 3-(((1,4,5,6-tetrahydropyrimidin-2-yl)thio)methyl)-5,6,7,8-tetrahydrothiazolo[3,2-a][1,3]diazepine dihydrochloride] | > 250 °C |
| C1=C(CSC2=NCCN2)N2CCCN=C2S1 (as salt: hydrochloride) [Example 26, 3-(((4,5-dihydro-1H-imidazol-2-yl)thio)methyl)-6,7-dihydro-5H-thiazolo[3,2-a]pyrimidine dihydrochloride] | > 250 °C |
| C1=C(CSC2=NCCCN2)N2CCN=C2S1 (as salt: hydrochloride) [Example 35, 3-(((1,4,5,6-tetrahydropyrimidin-2-yl)thio)methyl)-5,6-dihydroimidazo[2,1-b]thiazole dihydrochloride] | 100 to 102 °C |
| CC1(C)CN2C(CSC3=NCC(Cc4ccccc4)N3)=CSC2=N1 (centres unmarked) (as salt: hydrochloride) [Example 17, 3-(((5-benzyl-4,5-dihydro-1H-imidazol-2-yl)thio)methyl)-6,6-dimethyl-5,6-dihydroimidazo[2,1-b]thiazole dihydrochloride] | 83 to 103 °C |
| CCCCC1CN=C(SCC2=CSC3=NCCN23)N1 (centres unmarked) (as salt: hydrochloride) [Example 30, 3-(((5-butyl-4,5-dihydro-1H-imidazol-2-yl)thio)methyl)-5,6-dihydroimidazo[2,1-b]thiazole dihydrochloride] | 176 to 178 °C |
| CC1(C)CN2C(CSC3=N[C@@H]4CCC[C@@H](C4)N3)=CSC2=N1 (as salt: hydrochloride) [Example 22, 3-((((1R,5S)-2,4-diazabicyclo[3.3.1]non-2-en-3-yl)thio)methyl)-6,6-dimethyl-5,6-dihydroimidazo[2,1-b]thiazole dihydrochloride] | > 250 °C |
| CC1(C)CN=C(SCC2=CSC3=N[C@H]4CCCC[C@@H]4N23)N1 (racemic) (as salt: hydrochloride) [Example 7, trans-3-(((4,4-dimethyl-4,5-dihydro-1H-imidazol-2-yl)thio)methyl)-4a,5,6,7,8,8a-hexahydrobenzo[4,5]imidazo[2,1-b]thiazole dihydrochloride] | 248 to 252 °C |
| CCCCC1CN2C(CSC3=NCC(C)(C)N3)=CSC2=N1 (centres unmarked) (as salt: hydrochloride) [Example 19, 6-butyl-3-(((4,4-dimethyl-4,5-dihydro-1H-imidazol-2-yl)thio)methyl)-5,6-dihydroinidazo[2,1-b]thiazole dihydrochloride] | 210 to 218 °C |
